# Experimental data: ChEMBL document CHEMBL4421722, “Inhibitors of protein prenyltransferases” (2013)
# Species on record: Rattus norvegicus
# Test: Inhibition of rat recombinant geranylgeranyltransferase type I expressed in Escherichia coli assessed as residual enzyme activity for geranylgeranylation of K-Ras4B at 50 uM incubated for 30 mins in presence of [3H]GGPP by scintillation counting assay relative to control
row,Compound,Activity
1,CCCS[C@@H]1C[C@@H](c2ccc(OC)cc2)N(S(=O)(=O)c2ccccc2)C[C@H]1C(=O)O,89.5%
2,CCCCS[C@@H]1C[C@@H](c2ccc3c(c2)OCO3)N(S(=O)(=O)c2ccc(C)cc2)C[C@H]1C(=O)O,80.4%
3,Cc1ccc([C@H]2C(C(=O)O)=CC[C@@H](c3ccc(Cl)cc3)N2S(C)(=O)=O)cc1,90.6%
4,Cc1ccc(S[C@@H]2C[C@@H](c3ccc(C)cc3)N(S(=O)(=O)c3ccccc3C)C[C@H]2C(=O)O)cc1,92.4%
5,COc1cccc([C@@H]2CC=C(C(=O)O)[C@H](c3ccc(C)cc3)N2S(=O)(=O)c2ccc(C)cc2)c1,63.1%
6,CCS[C@@H]1C[C@@H](c2ccc(C)cc2)N(S(=O)(=O)c2ccc(C)cc2)C[C@H]1C(=O)O,90.1%
7,Cc1ccc(S(=O)(=O)N2[C@@H](c3cccc(Cl)c3)C(C(=O)O)=CC[C@H]2c2ccc(F)cc2)cc1,66.7%
8,Cc1ccc(S(=O)(=O)N2[C@@H](c3cccc(Cl)c3)C(C(=O)O)=CC[C@H]2c2ccccc2F)cc1,70.1%
9,COc1ccc([C@@H]2CC=C(C(=O)O)[C@H](c3ccc(Cl)cc3)N2S(=O)(=O)c2ccc(C)cc2)cc1OC,83.2%
10,Cc1ccc(S(=O)(=O)N2[C@@H](c3cccc(F)c3)C(C(=O)O)=CC[C@H]2c2cccc(F)c2)cc1,69.9%
11,CCCCCCS[C@@H]1C[C@@H](c2ccc(C)cc2)N(S(=O)(=O)c2ccccc2)C[C@H]1C(=O)O,81.2%
12,COc1cccc([C@@H]2C[C@@H](Sc3ccccc3)[C@H](C(=O)O)CN2S(=O)(=O)c2ccc(C)cc2)c1,86.1%
13,Cc1ccc(S(=O)(=O)N2C[C@@H](C(=O)O)[C@H](SCC(C)C)C[C@H]2c2cccc(Cl)c2)cc1,79.7%
14,CC(=O)C1=CC[C@@H](c2ccccc2F)N(S(=O)(=O)c2ccc(C)cc2)C1,80.8%
15,Cc1ccc([C@@H]2C[C@@H](SCc3ccc(C(C)(C)C)cc3)[C@H](C(=O)O)CN2S(=O)(=O)c2ccccc2C)cc1,69.5%
16,COc1ccc(S[C@@H]2C[C@@H](c3cccc(Cl)c3)N(S(=O)(=O)c3ccc(C)cc3)C[C@H]2C(=O)O)cc1,93.3%
17,CCCCCCS[C@@H]1C[C@@H](c2ccccc2)N(S(=O)(=O)c2ccc(C)cc2)C[C@H]1C(=O)O,77.5%
18,C=CCS[C@@H]1C[C@@H](c2ccc(C)cc2)N(S(=O)(=O)c2ccccc2)C[C@H]1C(=O)O,50.7%
19,COc1ccc(S[C@@H]2C[C@@H](c3ccc(C)cc3)N(S(=O)(=O)c3ccc(Cl)cc3)C[C@H]2C(=O)O)cc1,82.7%

row,Compound,Activity
1,Cc1ccc(S[C@@H]2C[C@@H](c3cccc(Br)c3)N(S(=O)(=O)c3ccc(C)cc3)C[C@H]2C(=O)O)cc1,94%
2,CCCS[C@@H]1C[C@@H](c2ccc(C)cc2)N(S(=O)(=O)c2ccc(Cl)cc2)C[C@H]1C(=O)O,83.2%
3,CCCCCCS[C@@H]1C[C@@H](c2ccc(OCC)cc2)N(S(=O)(=O)c2ccc(C)cc2)C[C@H]1C(=O)O,67.6%
4,CCOc1ccc([C@@H]2CC=C(C(=O)O)[C@H](c3ccc(C)cc3)N2S(=O)(=O)c2ccc(C)cc2)cc1,63.2%
5,Cc1ccc(S(=O)(=O)N2C[C@@H](C(=O)O)[C@H](SCc3ccccc3)C[C@H]2c2ccc3c(c2)OCO3)cc1,63.1%
6,CCCCCS[C@@H]1C[C@@H](c2ccc(OC)cc2)N(S(=O)(=O)c2ccc(C)cc2)C[C@H]1C(=O)O,86.7%
7,CCCCCCS[C@@H]1C[C@@H](c2cccc(Cl)c2)N(S(=O)(=O)c2ccc(C)cc2)C[C@H]1C(=O)O,77.3%
8,Cc1ccc(S(=O)(=O)N2C[C@@H](C(=O)O)[C@H](SCc3ccccc3)C[C@H]2c2ccccc2)cc1,92.1%
9,Cc1ccc([C@H]2C(C(=O)O)=CC[C@@H](c3cccc(Br)c3)N2S(=O)(=O)c2ccc(C)cc2)cc1,67.4%
10,Cc1ccc(S(=O)(=O)N2[C@@H](c3ccc(F)cc3)C(C(=O)O)=CC[C@H]2c2ccc3c(c2)OCO3)cc1,68.2%
11,CCc1ccc([C@@H]2CC=C(C(=O)O)[C@H](c3ccc(F)cc3)N2S(=O)(=O)c2ccc(C)cc2)cc1,55.2%
12,Cc1ccc([C@@H]2CC=C(C(=O)O)[C@H](c3cccc(F)c3)N2S(=O)(=O)c2ccc(Cl)cc2)cc1,54.5%
13,Cc1ccc(S(=O)(=O)N2[C@@H](c3cccc(Br)c3)C(C(=O)O)=CC[C@H]2c2ccccc2)cc1,65.9%
14,CS(=O)(=O)N1[C@@H](c2ccc(Br)cc2)C(C(=O)O)=CC[C@H]1c1ccccc1,83.6%
15,COc1ccc(S[C@@H]2C[C@@H](c3ccc(C)cc3)N(S(=O)(=O)c3ccccc3)C[C@H]2C(=O)O)cc1,100%
16,CCCCS[C@@H]1C[C@@H](c2ccc(OCC)cc2)N(S(=O)(=O)c2ccc(C)cc2)C[C@H]1C(=O)O,66%
17,Cc1ccc([C@@H]2CC=C(C(=O)O)[C@H](c3ccc(C(C)(C)C)cc3)N2S(=O)(=O)c2ccccc2C)cc1,80.9%
18,Cc1ccc(S(=O)(=O)N2[C@@H](c3cccc(C)c3)C(C(=O)O)=CC[C@H]2c2ccc(F)cc2)cc1,78.1%
19,Cc1ccc([C@@H]2C[C@@H](SC3CCCC3)[C@H](C(=O)O)CN2S(=O)(=O)c2ccc(C)cc2)cc1,87.8%

row,Compound,Activity
1,Cc1ccc(S(=O)(=O)N2C[C@@H](C(=O)O)[C@H](SCc3ccc(C(C)(C)C)cc3)C[C@H]2c2cccc(Cl)c2)cc1,99%
2,Cc1ccc([C@H]2C(C(=O)O)=CC[C@@H](c3cccc(F)c3)N2S(=O)(=O)c2ccc(C)cc2)cc1,81.3%
3,Cc1ccc(S(=O)(=O)N2[C@@H](c3cccc(F)c3)C(C(=O)O)=CC[C@H]2c2cccs2)cc1,81.8%
4,COc1ccc([C@@H]2C[C@@H](Sc3ccccc3)[C@H](C(=O)O)CN2S(=O)(=O)c2ccccc2)cc1,103%
5,CCS[C@@H]1C[C@@H](c2ccc(C)cc2)N(S(=O)(=O)c2ccccc2)C[C@H]1C(=O)O,95%
6,CCCCS[C@@H]1C[C@@H](c2ccccc2)N(S(=O)(=O)c2ccc(C)cc2)C[C@H]1C(=O)O,93.4%
7,CCS[C@@H]1C[C@@H](c2ccc(OC)c(OC)c2)N(S(=O)(=O)c2ccc(C)cc2)C[C@H]1C(=O)O,74.4%
8,Cc1ccc(S(=O)(=O)N2C[C@@H](C(=O)O)[C@H](Sc3ccc(Cl)cc3)C[C@H]2c2ccc3c(c2)OCO3)cc1,90.9%
9,Cc1ccc([C@@H]2CC=C(C(=O)O)[C@H](c3cccc(Br)c3)N2S(=O)(=O)c2ccccc2C)cc1,50%
10,CCCCS[C@@H]1C[C@@H](c2ccc(C)cc2)N(S(=O)(=O)c2ccc(C)cc2)C[C@H]1C(=O)O,82.6%
11,CCOc1ccc([C@@H]2C[C@@H](SCC(C)C)[C@H](C(=O)O)CN2S(=O)(=O)c2ccc(C)cc2)cc1,83.1%
12,CCCCCS[C@@H]1C[C@@H](c2ccc3c(c2)OCO3)N(S(=O)(=O)c2ccc(C)cc2)C[C@H]1C(=O)O,66%
13,Cc1ccc([C@H]2C(C(=O)O)=CC[C@@H](c3cccc(Cl)c3)N2S(=O)(=O)c2ccc(C)cc2)cc1,66.1%
14,CS(=O)(=O)N1[C@@H](c2cccc(Br)c2)C(C(=O)O)=CC[C@H]1c1ccc(Cl)cc1,50.4%
15,Cc1ccc(S(=O)(=O)N2[C@@H](c3ccc(Cl)cc3)C(C(=O)O)=CC[C@H]2c2ccc(C(C)C)cc2)cc1,57.6%
16,COc1ccc([C@@H]2CC=C(C(=O)O)[C@H](c3ccc(C)cc3)N2S(=O)(=O)c2ccccc2C)cc1,86%
17,CCCCS[C@@H]1C[C@@H](c2ccc(C)cc2)N(S(C)(=O)=O)C[C@H]1C(=O)O,104%
18,CCc1ccc([C@@H]2CC=C(C(=O)O)[C@H](c3ccc(C(C)(C)C)cc3)N2S(=O)(=O)c2ccc(C)cc2)cc1,79.7%
